# In patent US6921764B2, “Thieno-pyrimidin-4-one AMPA antagonists” (Pfizer Inc., priority 1997, dated 2005):
# System: rat global ischemia models
# Conditions: reported in literature; cited from earlier work
row,Structure (SMILES),neuroprotection in rat global ischemia models
1,CC1=NN=C(c2ccc(N)cc2)c2cc3c(cc2C1)OCO3 [GKYI 52466],effective neuroprotective agent

# System: not given
# Conditions: not given
row,melting point [°C],Structure (SMILES)
1,183 to 187,N#Cc1ccccc1NCc1nc2ccc(F)cc2c(=O)n1-c1cccnc1Cl
2,140,O=c1c2cc(F)ccc2nc(CNCc2ccccc2F)n1-c1ccccc1Cl
3,145 to 150,N#Cc1cccnc1NCc1nc2ccc(F)cc2c(=O)n1-c1ccccc1Cl
4,180 to 182,O=c1c2cc(F)ccc2nc(CNc2ccccc2F)n1-c1cccnc1Cl
5,148 to 151,Cl.O=c1c2sccc2nc(CNc2cccc(CN3CCCC3)c2)n1-c1ccccc1Cl
6,225 to 228,N#Cc1cccc(NCc2nc3ccc(F)cc3c(=O)n2-c2ccccc2Cl)c1
7,182 to 185,O=c1c2cc(F)ccc2nc(CNc2ncccn2)n1-c1ccccc1Cl
8,190 to 195,Cc1cccc(NCc2nc3ccc(F)cc3c(=O)n2-c2cccnc2Cl)n1
9,90 to 100,Cl.O=c1c2cc(F)ccc2nc(CNc2ccccn2)n1-c1ccccc1Cl
10,105 to 110,"O=c1c2cc(F)ccc2nc(CNc2cccc(CN3CCCC3)c2)n1-c1ccccc1Cl [Example 12, 3-(2-Chloro-phenyl)-6-fluoro-2-[(3-pyrrolidin-1-ylmethyl-phenylamino)-methyl]-3H-quinazolin-4-one]"
11,175 to 176,"O=c1c2sccc2nc(CNc2ccccc2F)n1-c1ccccc1Cl [Example 17, 3-(2-Chloro-phenyl)-2-[(2-fluoro-phenylamino)-methyl]-3H-thieno[3,2-d]pyrimidin-4-one]"

# System: global and focal ischemic damage
# Conditions: focal and global ischemia models; reported in literature; cited from earlier work
row,Structure (SMILES),prevention of global and focal ischemic damage
1,"NS(=O)(=O)c1cccc2c1c([N+](=O)[O-])cc1nc(O)c(O)nc12 [NBOX, 2,3-dihydroxy-6-nitro-7-sulfamoylbenzo[f-]quinoxaline]",effective in preventing global and focal ischemic damage
